{
  "source": "patent US20080027001A1",
  "about": "“NOGO RECEPTOR FUNCTIONAL MOTIFS, PEPTIDE MIMETICS, AND MUTATED FUNCTIONAL MOTIFS RELATED THERETO, AND METHODS OF USING THE SAME” (priority 2006, published 2008)",
  "key": {"cerebellar neurons": {"tested_on": "cerebellar neurons", "assay": "Neurite outgrowth assay, inhibition by soluble MAG-Fc", "format": "cell-based, rat", "conditions": "MAG-Fc 20 μg/ml, increasing peptide concentrations (FIG. 6E)", "description": "Cerebellar neurons isolated from postnatal day ⅔ rat pups were cultured over monolayers of 3T3 cells (Doherty et al. (1991) Neuron 6(2):247-58) essentially as previously described (Williams et al. (1994) Neuron 13(3):583-94). Monolayers were established by seeding ˜80,000 cells into individual chambers of an eight-chamber tissue culture slide coated with poly-L-lysine and fibronectin. The cell lines, and monolayers, were maintained in Dulbecco's modified Eagle's medium supplemented with 10% fetal calf serum (FCS). Cocultures were established by removing the media from the monolayers and seeding ˜6000 dissociated cerebellar neurons into each well in SATO medium (modified from Doherty et al. (1990) Neuron 5(2):209-19; Dulbecco's modified Eagle's medium supplemented with 2% FBS, 33% bovine albumin, 0.62 μg/ml progesterone, 161 μg/ml putrescine, 4 μg/ml L-thyroxine, 0.387 μg/ml selenium, and 3.37 μg/ml tri-iodo-thyronine (components from Sigma-Aldrich, St. Louis, Mo.)). Monolayers were established for 24 hours prior to addition of the neurons and the cultures were maintained for ˜23-27 hr. Following careful fixation with 4% paraformaldehyde, the neurons were stained with a GAP-43 antibody, and the mean length of the longest neurite per cell was measured for ˜120-150 neurons, again as previously described (Williams et al. (1994) supra). For neurite outgrowth on substrate-bound MAG, 96-well plates were coated with a thin layer of nitrocellulose (Bio-Rad, Hercules, Calif.) before incubating with 1 μg/ml of MAG(d1-5) (a chimeric construct containing domains 1-5 of the extracellular portion of MAG) at 4° C. overnight. Wells were subsequently coated with 17 μg/ml of poly-D-lysine (Sigma, St. Louis, Mo.), followed by incubation in Dulbecco's modified Eagle's medium containing 10% FCS. Cerebellar granule neurons were dissociated and seeded at a density of 10^4 cells per well. Cells were cultured for 18-20 h before being fixed with 4% paraformaldehyde and stained with a neuronal-specific anti-III-tubulin antibody, Tuj 1 (Covance, Emeryville, Calif.). The average of total neurite lengths from each neuron was measured automatically by the MetaXpress Neurite Outgrowth module (Molecular Devices, Sunnyvale, Calif.) from at least 200 neurons per well, in triplicate wells per experiment. Results were repeated independently more than three times.\nSynthetic peptides were all obtained from a commercial supplier (Multiple Peptide Systems, San Diego, Calif.). All peptides were purified to the highest grade by reverse-phase HPLC and obtained at the highest level of purity (>97%). With all peptides, there was no indication of higher molecular weight species. Where peptide sequences are underlined, this denotes a peptide that has been cyclized via a disulfide bond between the given cysteine residues. All peptides were acetylated (e.g., denoted with “N-Ac-”) and amide blocked (e.g., denoted with “—NH2”). Recombinant MAG-Fc chimera was obtained from R&D Systems (Minneapolis, Minn.) and used at final concentrations ranging from 5-25 μg/ml. The monoclonal antibody to GT1b (clone GMR5) was obtained from Seikagaku America (Falmouth, Mass.) and was used at a final concentration of 20 μg/ml. All reagents were diluted into the coculture media and, in general, added to the cultures just prior to the plating of the neurons. GT1b and GM1 were obtained as gifts from Dr. Gino Toffano (Libero, Italy) and University of Milan, and asialo-GM1 was obtained from Sigma (St. Louis, Mo.). The recombinant NgR1(310)-fc and MAG(d1-5) chimeras were expressed and purified in-house. Pharmacological reagents were obtained from Calbiochem (La Jolla, Calif.) and/or Sigma. For reagents used in cell-surface NgR binding assays, please see Examples 1.5 and 1.7. For reagents used in the cell surface p75NTR-NgR-AP binding assay, please see Example 1.13.\nIn contrast, a soluble MAG-Fc chimera inhibits neurite outgrowth in a manner that depends upon both ganglioside and NgR function. […]"}, "[1]": {"tested_on": "cerebellar granule neurons", "assay": "Neurite outgrowth on substrate-bound MAG", "format": "cell-based, rat", "conditions": "tested at up to 200 μg/ml (FIG. 6F)", "description": "Cerebellar neurons isolated from postnatal day ⅔ rat pups were cultured over monolayers of 3T3 cells (Doherty et al. (1991) Neuron 6(2):247-58) essentially as previously described (Williams et al. (1994) Neuron 13(3):583-94). Monolayers were established by seeding ˜80,000 cells into individual chambers of an eight-chamber tissue culture slide coated with poly-L-lysine and fibronectin. The cell lines, and monolayers, were maintained in Dulbecco's modified Eagle's medium supplemented with 10% fetal calf serum (FCS). […] Following careful fixation with 4% paraformaldehyde, the neurons were stained with a GAP-43 antibody, and the mean length of the longest neurite per cell was measured for ˜120-150 neurons, again as previously described (Williams et al. (1994) supra). […] The average of total neurite lengths from each neuron was measured automatically by the MetaXpress Neurite Outgrowth module (Molecular Devices, Sunnyvale, Calif.) from at least 200 neurons per well, in triplicate wells per experiment. […]"}, "NgR1(310)-fc": {"target": "T1, NgR1(310)-fc (Homo sapiens, UniProt Q9BZR6)", "T1 construct": "made in house; host or cells: mammalian expression vector (pSMED2)", "T1 sequence (Q9BZR6 with tags, fused parts or gaps limits assumed)": "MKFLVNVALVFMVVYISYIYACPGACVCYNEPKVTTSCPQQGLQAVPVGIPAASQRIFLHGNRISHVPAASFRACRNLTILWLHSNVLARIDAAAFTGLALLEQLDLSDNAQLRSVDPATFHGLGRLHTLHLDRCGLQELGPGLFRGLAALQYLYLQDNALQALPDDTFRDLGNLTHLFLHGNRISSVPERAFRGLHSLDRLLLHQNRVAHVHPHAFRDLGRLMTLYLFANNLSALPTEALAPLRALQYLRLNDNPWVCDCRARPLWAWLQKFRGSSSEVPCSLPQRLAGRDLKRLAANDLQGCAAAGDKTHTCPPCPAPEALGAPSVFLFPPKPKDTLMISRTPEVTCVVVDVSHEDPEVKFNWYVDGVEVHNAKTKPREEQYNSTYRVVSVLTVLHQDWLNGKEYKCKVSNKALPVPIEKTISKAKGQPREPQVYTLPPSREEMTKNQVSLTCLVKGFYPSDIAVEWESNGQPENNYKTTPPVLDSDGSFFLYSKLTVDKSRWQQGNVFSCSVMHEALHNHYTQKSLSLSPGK", "assay": "Analytical ultracentrifugation (sedimentation velocity), wild type receptor", "format": "binding", "conditions": "ganglioside 0 to 48 μM (FIG. 3A-C)", "source_text": "(§1) Human Nogo Receptor 1 (NgR1)(310)-fc point mutants (FRG-1 (R151E); FRG-2 (R279E); FRG-3 (R199E), and FRG-4 (R151E/R279E/R199E)) were constructed by Genewiz (North Brunswick, N.J.) using their site-directed mutagenesis technology. The template used to construct all the described mutants was wild type human NgR1(310)-fc (SEQ ID NO:59), which was generated by fusing a nucleotide sequence corresponding to the first 310 amino acid of Human Nogo Receptor 1 to a human Fc fragment in a mammalian expression vector (the sequence of wild type NgR1(310)-fc and the expression vector is set forth in SEQ ID NO:60 and a schematic of the expression vector is shown in FIG. 11). […]\n(§2) Sedimentation velocity experiments were performed on a Beckman XLI/XLA analytical ultracentrifuge. […] Scans were recorded at 20° C. with a rotor speed of 35,000 rpm, and the signal was detected at 230 nm with a spacing of 0.006 in the continuous mode. Sedimentation profiles were analyzed by the program Sedfit (Schuck (2000) Biophys. J. 78:1606-19) to obtain the sedimentation coefficient distributions. The solvent density (1.006) and partial specific volume (0.72) were calculated using the program Sednterp (Laue et al. (1992) Analytical Ultracentrifugation in Biochemistry and Polymer Science (Harding, S. E., Towe, A. J. and Horton, J. C., eds.) pp. 90-125, Royal Society of Chemistry, Cambridge, U.K). […]"}, "NgR1(310)-fc R151E": {"target": "T2, NgR1(310)-fc R151E (Homo sapiens, UniProt Q9BZR6, R151E)", "T2 construct": "made in house; host or cells: mammalian expression vector", "T2 sequence (Q9BZR6 27-310 R151E)": "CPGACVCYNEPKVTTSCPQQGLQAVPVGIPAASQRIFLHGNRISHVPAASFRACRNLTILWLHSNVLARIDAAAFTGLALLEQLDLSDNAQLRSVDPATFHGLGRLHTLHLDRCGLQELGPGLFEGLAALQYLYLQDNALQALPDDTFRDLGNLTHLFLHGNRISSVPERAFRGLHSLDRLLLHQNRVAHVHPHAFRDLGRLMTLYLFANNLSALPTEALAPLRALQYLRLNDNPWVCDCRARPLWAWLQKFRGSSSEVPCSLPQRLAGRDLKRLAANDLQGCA", "assay": "Analytical ultracentrifugation, R151E mutant receptor", "format": "binding", "source_text": "as §1, §2"}, "NgR1(310)-fc R279E": {"target": "T3, NgR1(310)-fc R279E (Homo sapiens, UniProt Q9BZR6, R279E)", "T3 construct": "made in house; host or cells: mammalian expression vector", "T3 sequence (Q9BZR6 27-310 R279E)": "T2 sequence (Q9BZR6 27-310 R151E) with E125R, R253E", "assay": "Analytical ultracentrifugation, R279E mutant receptor", "format": "binding", "source_text": "as §1, §2"}, "[2]": {"tested_on": "anti-hNgR AF 1208 antibody", "assay": "Analytical ultracentrifugation, specificity control", "format": "binding", "conditions": "22 mM GT1b (data not shown)", "description": "Sedimentation velocity experiments were performed on a Beckman XLI/XLA analytical ultracentrifuge. Wild type NgR(310)-fc (0.21 μM to 0.38 μM final) was added to ganglioside at concentrations increasing from 0 to 48 μM. Mutant protein used in the sedimentation velocity experiments corresponded to the column fraction of greatest purity based on SDS gel analysis. […] The solution (400 μL) was loaded into two-channel (1.2 cm path length) carbon-Epon centerpieces in an An-50-Ti rotor. Scans were recorded at 20° C. with a rotor speed of 35,000 rpm, and the signal was detected at 230 nm with a spacing of 0.006 in the continuous mode. Sedimentation profiles were analyzed by the program Sedfit (Schuck (2000) Biophys. J. 78:1606-19) to obtain the sedimentation coefficient distributions. The solvent density (1.006) and partial specific volume (0.72) were calculated using the program Sednterp (Laue et al. (1992) Analytical Ultracentrifugation in Biochemistry and Polymer Science (Harding, S. E., Towe, A. J. and Horton, J. C., eds.) pp. 90-125, Royal Society of Chemistry, Cambridge, U.K).\nThe peptide competition studies, together with the direct binding assays, have implicated the FRG motif within loop 2 as being important for MAG function. […]"}, "NgR1(310)-fc R199E": {"target": "T4, NgR1(310)-fc R199E (Homo sapiens, UniProt Q9BZR6, R199E)", "T4 construct": "made in house; host or cells: mammalian expression vector", "T4 sequence (Q9BZR6 27-310 R199E)": "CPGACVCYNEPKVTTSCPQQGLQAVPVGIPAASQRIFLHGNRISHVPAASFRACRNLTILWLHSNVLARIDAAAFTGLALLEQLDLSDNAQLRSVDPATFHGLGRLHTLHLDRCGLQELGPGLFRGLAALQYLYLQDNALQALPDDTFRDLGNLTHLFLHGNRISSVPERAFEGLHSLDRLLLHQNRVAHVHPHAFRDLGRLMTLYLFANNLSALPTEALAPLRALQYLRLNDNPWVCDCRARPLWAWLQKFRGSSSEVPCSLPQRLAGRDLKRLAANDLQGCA", "assay": "Analytical ultracentrifugation, R199E mutant receptor", "format": "binding", "source_text": "as §1, §2"}, "[3]": {"tested_on": "NgR1 expressed in CHO cells (Nogo66-AP binding)", "assay": "Neuraminidase treatment, Nogo66-AP binding to NgR1-expressing CHO cells", "conditions": "highest concentration of neuraminidase; Nogo66-AP 10 μg/ml", "description": "(§3) Chinese hamster ovary (CHO) parental cells and NgR1 stable cells were seeded at 30,000 cells per well in 96-well plates the night before the assay. Various concentrations of Vibrio cholera neuraminidase (Roche Applied Science, Indianapolis, Ind.) in growth medium (Dulbecco's modified Eagle medium containing 10% fetal bovine serum) were incubated with cells for an hour at 37° C. Medium was replaced with affinity-purified MAG-AP or Nogo66-AP in HBSS supplemented with 1% fetal bovine serum and […] of HEPES and incubated at room temperature for 90 min. Cells were then washed four times with supplemented HBSS. AltoPhos (0.6 mg/ml) (Promega, Madison Wis.) was added for indication of bound ligands. After a 30 minute incubation at RT, the plates were read at […] wavelength of 400 nm/505 nm with FLEXSTATION® 11384.\n(§4) In neurons, soluble MAG binds to the NgR1 and NgR2 in a sialic acid-dependent manner (Venkatesh et al. (2005) supra). In the present study, the neuraminidase sensitivity of MAG binding to the NgR1 expressed in CHO cells was confirmed."}, "[4]": {"tested_on": "NgR1 expressed in CHO cells (MAG-AP binding)", "assay": "Neuraminidase treatment, MAG-AP binding to NgR1-expressing CHO cells", "conditions": "MAG-AP 2.5-20 μg/ml; CHO cells treated with neuraminidase", "description": "as §3, §4"}},
  "note": "Changes are numbered by the printed parent chain. Several values for one entry are separate records, joined by “and”; a condition that tells them apart may be missing. Equal entries are not always repeated.",
  "data": [
    {"substance": "N-Ac-c[sGrfkq]-NH2 (XGXXXX; not fully specified; cyclised or stapled) [hriNRL2]", "values": [
      {"measurement": "efficacy in inhibiting the MAG response", "setting": "cerebellar neurons", "result": "retain full efficacy"},
      {"measurement": "effect on suppressed neurite outgrowth on MAG substrate", "setting": "[1]", "result": "no significant effect"}
    ]},
    {"substance": "GT1b", "values": [
      {"measurement": "interaction with NgR1(310)-fc (shift of sedimentation coefficient)", "setting": "NgR1(310)-fc", "result": "additional peaks with higher sedimentation coefficients appear in a dose-dependent manner"},
      {"measurement": "reduction of GT1b/NgR1 complex formation", "setting": "NgR1(310)-fc R151E; R151 mutated", "result": "~50", "unit": "%"},
      {"measurement": "GT1b binding relative to wild type", "setting": "NgR1(310)-fc R151E; mutation of arginine 151, GT1b 22 μM", "result": 49, "unit": "%"},
      {"measurement": "reduction of GT1b/NgR1 complex formation", "setting": "NgR1(310)-fc R279E; R279 mutated", "result": "~50", "unit": "%"},
      {"measurement": "GT1b binding relative to wild type NgR", "setting": "NgR1(310)-fc R279E; mutation of arginine 279, GT1b 22 μM, ratio of ~6.7 S and ~11 S peaks", "result": "approximately 56%"},
      {"measurement": "effect on sedimentation of control antibody", "setting": "[2]", "result": "No effect"},
      {"measurement": "reduction of GT1b/NgR1 complex formation", "setting": "NgR1(310)-fc R199E; R199 mutated", "result": "~70", "unit": "%"},
      {"measurement": "GT1b binding relative to wild type / residual complex formation", "setting": "NgR1(310)-fc R199E; mutation of arginine 199, GT1b 22 μM", "result": "~30% and 33%"}
    ]},
    {"substance": "neuraminidase: Vibrio cholera neuraminidase (Roche Applied Science)", "values": [
      {"measurement": "effect on Nogo66-AP binding to NgR1", "setting": "[3]", "result": "completely unaffected"},
      {"measurement": "inhibition of specific binding of MAG-AP to NgR1-expressing cells", "setting": "[4]", "result": 55, "unit": "%"}
    ]}
  ]
}
